# According to patent US8163771B2, “11 β-HSD1 modulators” (Exelixis, Inc., priority 2008, dated 2012):
# pIC50: −log10 of the molar value.
# Target: T1, recombinant human 11 β-HSD1 (Homo sapiens, UniProt P28845)
# T1 construct: made in house; host or cells: E. coli
# Test: 11 β-HSD1 SPA Assay (Scintillation Proximity Assay)
# Format: biochemical
# How it was run: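 E. coli-expressed human enzyme (30-100 nM) with tritiated cortisone 40 nM and NADPH 1 mM in HEPES buffer pH7.4, 2 hours at room temperature. Stopped with protein A SPA beads carrying anti-cortisol antibody and glycyrrhetinic acid; counted after overnight incubation. IC50 from percent inhibition between no-enzyme and no-compound signals.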
# T1 sequence (P28845 whole entry): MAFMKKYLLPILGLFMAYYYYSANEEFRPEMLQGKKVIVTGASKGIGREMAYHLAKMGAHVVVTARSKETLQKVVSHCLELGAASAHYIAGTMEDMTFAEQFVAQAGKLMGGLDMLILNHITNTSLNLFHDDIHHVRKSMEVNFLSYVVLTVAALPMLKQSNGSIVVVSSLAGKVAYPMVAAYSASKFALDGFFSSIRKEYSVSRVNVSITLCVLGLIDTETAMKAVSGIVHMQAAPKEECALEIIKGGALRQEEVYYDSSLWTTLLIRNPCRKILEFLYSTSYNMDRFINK
row,Molecule,pIC50
1,"CC(C)(Oc1ccc(F)cc1F)C(=O)N[C@H]1C[C@H]2CC[C@@H](C1)N2c1ccc(C(=O)NCC(F)F)cn1 [Example 443, N-(2,2-difluoroethyl)-6-(3-endo-{[2-(2,4-difluorophenoxy)-2-methylpropanoyl]amino}-8-azabicyclo[3.2.1]oct-8-yl)pyridine-3-carboxamide]",> 6.70
2,"CC(C)(Oc1ccc(Cl)c(F)c1)C(=O)N[C@H]1C[C@H]2CC[C@@H](C1)N2c1ccc(C(=O)NCC(F)(F)F)cc1 [Example 167, 4-[3-endo-({2-[(4-chloro-3-fluorophenyl)oxy]-2-methylpropanoyl}amino)-8-azabicyclo[3.2.1]oct-8-yl]-N-(2,2,2-trifluoroethyl)benzamide]",> 6.70
3,"CC(C)(Oc1cc(F)ccc1Cl)C(=O)N[C@H]1C[C@H]2CC[C@@H](C1)N2c1ccc(C(=O)NC2CC2)cn1 [Example 69, 6-[3-endo-({2-[(2-chloro-5-fluorophenyl)oxy]-2-methylpropanoyl}amino)-8-azabicyclo[3.2.1]oct-8-yl]-N-cyclopropylpyridine-3-carboxamide]",> 6.70
4,"CC(C)(Oc1ccc(Cl)cc1Cl)C(=O)N[C@H]1C[C@H]2CC[C@@H](C1)N2c1ccc(C(=O)NCC(F)F)cn1 [Example 355, 6-(3-endo-{[2-(2,4-dichlorophenoxy)-2-methylpropanoyl]amino}-8-azabicyclo[3.2.1]oct-8-yl)-N-(2,2-difluoroethyl)pyridine-3-carboxamide]",> 6.70
5,"CC(C)(Oc1ccc(Cl)c(Cl)c1)C(=O)N[C@H]1C[C@H]2CC[C@@H](C1)N2c1ccc(S(C)(=O)=O)cc1 [Example 206, 2-[(3,4-dichlorophenyl)oxy]-2-methyl-N-{8-[4-(methylsulfonyl)phenyl]-8-azabicyclo[3.2.1]oct-3-endo-yl}propanamide]",> 5.70
6,"CC(C)(Oc1ccc(F)cc1Cl)C(=O)N[C@H]1C[C@H]2CC[C@@H](C1)N2c1ccc(-c2noc(C(F)(F)F)n2)cn1 [Example 276, 2-[(2-chloro-4-fluorophenyl)oxy]-2-methyl-N-(8-{5-[5-(trifluoromethyl)-1,2,4-oxadiazol-3-yl]pyridin-2-yl}-8-azabicyclo[3.2.1]oct-3-endo-yl)propanamide]",> 5.70
7,"CC(C)(Oc1c(Cl)cc(F)cc1Cl)C(=O)N[C@H]1C[C@H]2CC[C@@H](C1)N2c1ccc(S(N)(=O)=O)cn1 [Example 238, N-{8-[5-(aminosulfonyl)pyridin-2-yl]-8-azabicyclo[3.2.1]oct-3-endo-yl}-2-[(2,6-dichloro-4-fluorophenyl)oxy]-2-methylpropanamide]",> 6.70
8,"CC(C)(Oc1ccc(F)cc1C(C)(C)O)C(=O)N[C@H]1C[C@H]2CC[C@@H](C1)N2c1ccc(C(=O)NCC(F)F)cn1 [Example 467, N-(2,2-difluoroethyl)-6-(3-endo-(2-(4-fluoro-2-(2-hydroxypropan-2-yl)phenoxy)-2-methylpropanamido)-8-azabicyclo[3.2.1]octan-8-yl)nicotinamide]",> 6.70
9,"CC(C)(Oc1ccc(C(F)(F)F)cc1Cl)C(=O)N[C@H]1C[C@H]2CC[C@@H](C1)N2c1ccc(C(=O)NCC(F)(F)F)cn1 [Example 184, 6-{3-endo-[(2-{[2-chloro-4-(trifluoromethyl)phenyl]oxy}-2-methylpropanoyl)amino]-8-azabicyclo[3.2.1]oct-8-yl}-N-(2,2,2-trifluoroethyl)pyridine-3-carboxamide]",> 6.70
10,"CC(C)(Oc1cc(F)c(F)cc1Cl)C(=O)N[C@H]1C[C@H]2CC[C@@H](C1)N2c1ccc(S(C)(=O)=O)cc1 [Example 225, 2-[(2-chloro-4,5-difluorophenyl)oxy]-2-methyl-N-{8-[4-(methylsulfonyl)phenyl]-8-azabicyclo[3.2.1]oct-3-endo-yl}propanamide]",> 6.70
11,"N-(2,2-difluoroethyl)-6- [3-endo-({2-[2-fluoro-4- (2-hydroxypropan-2- yl)phenoxy]-2- methylpropanoyl}amino)- 8-azabicyclo[3.2.1]oct- 8-yl]pyridine-3- carboxamide [Example 305]",> 6.70
12,"CC(C)(Oc1ccc(C(F)(F)F)cc1)C(=O)N[C@H]1C[C@H]2CC[C@@H](C1)N2c1ccc(C(=O)NC2CC2)cn1 [Example 37, N-cyclopropyl-6-{3-endo-[(2-methyl-2-{[4-(trifluoromethyl)phenyl]oxy}propanoyl)amino]-8-azabicyclo[3.2.1]oct-8-yl}pyridine-3-carboxamide]",> 6.70
13,"COc1ccc(OC(C)(C)C(=O)N[C@H]2C[C@H]3CC[C@@H](C2)N3c2ccc(S(N)(=O)=O)cn2)cc1 [Example 181, N-{8-[5-(aminosulfonyl)pyridin-2-yl]-8-azabicyclo[3.2.1]oct-3-endo-yl}-2-methyl-2-{[4-(methyloxy)phenyl]oxy}propanamide]",> 6.70
14,"C[C@H](NC(=O)c1ccc(N2C3CCC2CC(NC(=O)C(C)(C)Oc2ccc(Cl)cc2F)C3)nc1)C(F)(F)F (stereo partly drawn) [Example 435, 6-(3-endo-{[2-(4-chloro-2-fluorophenoxy)-2-methylpropanoyl]amino}-8-azabicyclo[3.2.1]oct-8-yl)-N-[(2S)-1,1,1-trifluoropropan-2-yl]pyridine-3-carboxamide]",> 6.70
15,"O=C(Nc1ccc(N2[C@@H]3CC[C@H]2C[C@@H](NC(=O)C2(c4ccc(Cl)cc4)CC2)C3)nc1)C1CC1 [Example 59, 1-(4-chlorophenyl)-N-(8-{5-[(cyclopropylcarbonyl)amino]pyridin-2-yl}-8-azabicyclo[3.2.1]oct-3-endo-yl)cyclopropanecarboxamide]",> 6.70
16,"CC(C)(Oc1cc(F)c(F)cc1Cl)C(=O)N[C@H]1C[C@H]2CC[C@@H](C1)N2c1ccc(S(N)(=O)=O)cn1 [Example 262, N-{8-[5-(aminosulfonyl)pyridin-2-yl]-8-azabicyclo[3.2.1]oct-3-endo-yl}-2-[(2-chloro-4,5-difluorophenyl)oxy]-2-methylpropanamide]",> 6.70
17,"CC(C)(Oc1ccc(Cl)cc1S(C)(=O)=O)C(=O)N[C@H]1C[C@H]2CC[C@@H](C1)N2c1ccc(C(=O)NCC(F)(F)F)cn1 [Example 321, 6-{3-endo-[(2-{[4-chloro-2-(methylsulfonyl)phenyl]oxy}-2-methylpropanoyl)amino]-8-azabicyclo[3.2.1]oct-8-yl}-N-(2,2,2-trifluoroethyl)pyridine-3-carboxamide]",> 6.70
18,"CC(C)(Oc1ccc(F)c(F)c1)C(=O)N[C@H]1C[C@H]2CC[C@@H](C1)N2c1ccc(C(=O)NCC(F)(F)F)cc1 [Example 210, 4-[3-endo-({2-[(3,4-difluorophenyl)oxy]-2-methylpropanoyl}amino)-8-azabicyclo[3.2.1]oct-8-yl]-N-(2,2,2-trifluoroethyl)benzamide]",> 6.70
19,"CC(C)(Oc1ccc(C(C)(C)O)cc1Cl)C(=O)N[C@H]1C[C@H]2CC[C@@H](C1)N2c1ccc(C(=O)NCC(F)F)cn1 [Example 471, 6-[3-endo-({2-[2-chloro-4-(2-hydroxypropan-2-yl)phenoxy]-2-methylpropanoyl}amino)-8-azabicyclo[3.2.1]oct-8-yl]-N-(2,2-difluoroethyl)pyridine-3-carboxamide]",> 6.70
20,COc1cc(F)ccc1OC(C)(C)C(=O)N[C@H]1C[C@H]2CC[C@@H](C1)N2c1ccc(S(C)(=O)=O)cn1 [Example 220],> 6.70
